Results published in paper PMC6271935, “Synthesis and Broad-Spectrum Antiviral Activity of Some Novel Benzo-Heterocyclic Amine Compounds” (Molecules, 2014).
pIC50: −log10 of the molar value.

Tests used:
[1] = tested on: HepG2.2.15 cells; test: Cytotoxicity in HepG2.2.15 cells (CPE); type: cell-based, human; settings: 3 + 3 days
Experimental: Cells were cultured for 3 days at 37 °C in a 5% CO2 atmosphere in an incubator, and the medium was replaced with fresh medium containing the test compounds for an additional 3 days. The cells were subsequently monitored by CPE and the TC50 value was calculated using Reed and Muench analysis.

[2] = tested on: MDCK cells; test: Cytotoxicity in MDCK cells (CPE); type: cell-based, Canine; settings: 48 h, Reed & Muench
Experimental: (§1) The cytotoxicity of the compounds in MDCK, Vero and HepG2.2.15 cells was monitored via cytopathic effect (CPE) assays. The MDCK and Vero cells (2.5 × 10^4 /well) were plated in a 96-well plate. Following a 24 h hold period, the monolayer of cells was incubated in the presence of various concentrations of the test compounds. […] The TC50 value was calculated using Reed & Muench analysis.

[3] = tested on: HBV; test: Anti-HBV assay in HepG2.2.15 cells, viral DNA by real time PCR; type: cell-based, Hepatitis B virus; settings: for pIC50: Hepatitis B virus, HepG2.2.15, 144 h, intracellular viral DNA, 3 + 3 days
Experimental: The synthesized target compounds were assayed for their broad spectrum antiviral activity towards influenza A, HBV, HCV and Cox B3 virus in vitro. […] The inhibitory activities towards HBV and HCV were tested by real time PCR, and lamivudine (3TC) and teleprevir were used as positive controls, respectively.
The anti-HBV activities of test compounds and a positive control drug were tested in HepG2.2.15 cells. The HepG2.2.15 cells were cultured in 96-well plates and treated with the test compounds at 37 °C for 3 days. The medium was removed, and fresh medium containing the test compounds was added for an additional 3 days. The cells were harvested and intracellular DNA was extracted. The inhibition of viral DNA replication in treated cells versus untreated cells was determined by real time PCR.

[4] = tested on: Vero cells; test: Cytotoxicity in Vero cells (CPE); settings: 48 h, Reed & Muench
Experimental: as §1

[5] = tested on: Cox B3; test: organism not typed; type: cell-based, Coxsackie viruses (Cox B3 Nancy strain); settings: for pIC50: Vero
[6] = tested on: HCV; test: Anti-HCV assay in Huh7.5 cells, intracellular HCV RNA by real time RT-PCR; type: cell-based; settings: Hepatitis C virus, 96 h
[7] = tested on: Huh7.5 cells; test: Cytotoxicity in Huh7.5 cells (MTT); type: cell-based, human; settings: 96 h
Experimental: The Huh7.5 cells (1 × 10^4 cells/well) were plated in 96-well plates. Six hours later the culture media was replaced with fresh medium containing the test compounds at various concentrations. Cytotoxicity was evaluated with the 3-(4,5-dimethylthiazol-2-yl)-2,5-diphenyltetrazolium bromide (MTT) assay after 96 h.
Huh7.5 cells were seeded at a density of 3 × 10^4 cells/cm^2. After 24 h of incubation, the cells were infected with an HCV viral stock (approximately 45 IU per cell) and simultaneously treated with Telaprevir, the test compounds, or the solvent control. The culture medium was removed 96 h after inoculation, and the total intracellular RNA and total intracellular proteins were extracted with a Qiagen Kit according to the manufacturer’s instructions. Intracellular HCV RNA was quantified using a one-step real time RT-PCR kit (Invitrogen). Cytotoxicity was tested by the MTT assay, and IC50 values were calculated by the Reed and Muench methods.

[8] = tested on: Influenza A/hanfang/359/95; test: microbe, parasite or virus in culture; type: cell-based; settings: for pIC50: Influenza A virus, MDCK

SMILES | TC50 (50% cytotoxic concentration), HBV [1] [µM] | TC50 (50% cytotoxic concentration), Influenza A/hanfang/359/95 [2] [µM] | melting point [°C] | pIC50 [3] | TC50 (50% cytotoxic concentration), Cox B3 [4] [µM] | pIC50 [5] | pIC50 [6] | TC50 (50% cytotoxic concentration), HCV [7] [µM] | pIC50 [8] | anti-HBV activity (in words) [3] | inhibitory activity towards Cox B3 (in words) ([5]; Vero cells, CPE) | anti-influenza A activity (in words) ([8]; MDCK cells, CPE)
Clc1ccc(CNc2ccc3cc[nH]c3c2)cc1 [1a, (4-Chlorobenzyl)-(1H-indol-6-yl)-amine] | 8.02 | 3.35 | 135 to 137 | 5.84 | 8.34 | 5.32 | 5.85 | 15.88 | < 5.80 |  |  | 
C(=C\c1ccccc1)/CNc1ccc2cc[nH]c2c1 [1b, (E)-(1H-Indol-6-yl)-(3-phenylallyl)-amine] | 3.21 | 2.86 | 130 to 132 | < 5.73 | 8.61 | 5.54 |  |  | < 5.78 |  |  | 
Cc1ccc(CNc2ccc3cc[nH]c3c2)o1 [1c, (1H-Indol-6-yl)-(5-methylfuran-2-ylmethyl)-amine] | 16.67 | 4.52 | 100 to 102 | < 5.25 | 25.15 | 5.71 | 5.56 | 46.78 | < 6.18 | complete loss of antiviral activity |  | 
Cc1ccc(CNc2ccc3cc[nH]c3c2)s1 [1d, (1H-Indol-6-yl)-(5-methylthiophen-2-ylmethyl)-amine] | 28.87 | 26.50 | 89 to 91 | < 4.78 | 66.10 | 5.77 |  |  | 4.93 |  |  | 
COc1cc(CNc2ccc3ncoc3c2)cc(Br)c1O [2a, 4-(Benzooxazol-6-ylaminomethyl)-2-bromo-6-methoxyphenol] | 28.87 | 64.04 | 129 to 131 | < 4.78 | 55.13 | 5.45 | 4.48 | 89.63 | < 4.97 |  |  | 
O=[N+]([O-])c1ccc(CNc2ccc3ncoc3c2)cc1 [2b, Benzooxazol-6-yl-(4-nitrobenzyl)-amine] | 16.67 | 288.23 | 154 to 156 | < 5.25 | 257.52 | 4.50 | < 4.18 | >200 | 4.38 |  |  | 
C(=C\c1ccccc1)/CNc1ccc2ncoc2c1 [2c, (E)-Benzooxazol-6-yl-(3-phenylallyl)-amine] | 28.87 | 133.16 | 100 to 103 | < 4.78 | 103.36 | 5.91 | 4.98 | 105.44 | 4.94 |  |  | 
c1csc(CNc2ccc3ncoc3c2)c1 [2d, Benzooxazol-6-yl-thiophen-2-ylmethylamine] |  | 434.24 | 62 to 64 |  | 100.35 | 5.03 | < 4.18 | 136.53 | 4.46 |  |  | 
Clc1ccc(CNc2ccc3ncoc3c2)s1 [2e, Benzooxazol-6-yl-(5-chlorothiophen-2-ylmethyl)-amine] | 19.25 | 87.30 | 100 to 102 | < 4.95 | 29.08 | 5.45 | 4.75 | 45.78 | 4.96 |  |  | 
c1ncc(CNc2ccc3ncoc3c2)cn1 [2f, Benzooxazol-6-yl-pyrimidin-5-ylmethyl-amine] |  | 425.44 | 175 to 177 |  | 295.10 | 4.25 |  |  | < 4.01 |  |  | 
c1cnc2c(CNc3ccc4ncoc4c3)cccc2c1 [2g, Benzooxazol-6-yl-quinolin-8-ylmethylamine] |  | 56.04 | 98 to 100 |  | 80.80 | 5.05 | 4.85 | 27.57 | 5.04 |  |  | 
Nc1ccn([C@@H]2CS[C@H](CO)O2)c(=O)n1 [3TC, lamivudine, reference compound] | >100 |  |  | 5.73 |  |  |  |  |  |  |  | 
COc1cc(CNc2ccc3ncsc3c2)cc(Br)c1O [3a, 4-(Benzothiazol-6-ylaminomethyl)-2-bromo-6-methoxyphenol] | 28.87 | 21.08 | 193 to 195 | < 4.78 | 21.08 | 4.99 | 4.31 | 108.82 | < 4.99 |  |  | 
COc1cccc(CNc2ccc3ncsc3c2)c1O [3b, 2-(Benzothiazol-6-ylaminomethyl)-6-methoxyphenol] | 57.74 | 55.95 | 206 to 208 | < 4.48 | 67.23 | 5.25 | 4.42 | 126.59 | 5.00 |  |  | 
O=[N+]([O-])c1cccc(CNc2ccc3ncsc3c2)c1 [3c, Benzothiazol-6-yl-(3-nitrobenzyl)-amine] |  | 45.01 | 126 to 128 |  | 112.45 | 5.14 |  |  | 4.90 |  |  | 
O=[N+]([O-])c1ccc(CNc2ccc3ncsc3c2)cc1 [3d, Benzothiazol-6-yl-(4-nitrobenzyl)-amine] | 9.62 | 272.01 |  | < 5.25 | 181.3 | 5.74 | 4.65 | 142.86 | 5.47 |  |  | 
c1csc(CNc2ccc3ncsc3c2)c1 [3h, Benzothiazol-6-yl-thiophen-2-ylmethylamine] |  | 78.14 | 148 to 150 |  | 65.03 | 4.98 | 4.32 | 153.72 | 5.18 |  |  | 
c1ccc2c(CNc3ccc4ncsc4c3)c3ccccc3cc2c1 [3k, Anthracen-9-ylmethyl-benzothiazol-6-yl-amine] |  | 1.73 | 174 to 176 |  | 2.09 |  |  |  | < 6.39 |  | no inhibitory activity | complete loss in activity
C(=C\c1ccccc1)/CNc1ccc2nc[nH]c2c1 [4a, (E)-(3H-Benzoimidazol-5-yl)-(3-phenyl-allyl)-amine] |  | 14.84 |  |  | 25.75 | 5.20 | 5.26 | 79.04 | 5.31 |  |  | 
CCOC(=O)C1=C[C@@H](OC(CC)CC)[C@H](NC(C)=O)[C@@H](N)C1 [Oseltamivir, oseltamivir, reference compound] |  | 4030.42 |  |  |  |  |  |  | 4.72 |  |  | 
NC(=O)c1ncn([C@@H]2O[C@H](CO)[C@@H](O)[C@H]2O)n1 [RBV, ribavirin, reference compound] |  |  |  |  |  | 2.67 |  |  | 5.06 |  |  | 
CCC[C@H](NC(=O)[C@@H]1[C@H]2CCC[C@H]2CN1C(=O)[C@@H](NC(=O)[C@@H](NC(=O)c1cnccn1)C1CCCCC1)C(C)(C)C)C(=O)C(=O)NC1CC1 [Telaprevir, telaprevir, reference compound] |  |  |  |  |  |  | 7.96 | 32.12 |  |  |  | 
